System: A431 tumor
Assay: A431 tumor model in T-cell deficient Nu mice
Details: i.v. at 6, 8, 10 days post-inoculation

In the case of COc1cccc2c1C(=O)c1c(O)c3c(c(O)c1C2=O)C[C@@](O)(C(=O)CO)C[C@@H]3O[C@H]1C[C@H](N)[C@@H](O)[C@H](C)O1 [free EPI, epirubicin], the “effect on tumor growth” value is reported as “slightly reduced the rate of tumor growth”.
